In patent US20140288044A1, “COMPOSITIONS AND THERAPEUTIC USES OF IKK-RELATED KINASE EPSILON AND TANKBINDING KINASE 1 INHIBITORS” (Alzheimer's Institute of America, Inc., priority 2011, published 2014):
Where two headings read alike, the source gives them in different places.

Columns and labels:
[1] = tested on: IKKε-mediated phosphorylation of IRF3; test: ELISA for in-situ phosphorylation of IRF3 (phospho-Ser396) in HEK293T cells cotransfected with IRF3 and IKKε; assay type: cell-based; settings: Homo sapiens, HEK-293T, 20 h, HEK293T cells, 20 hours, read-out: IC50, in-situ IKKε-mediated phosphorylation of IRF3
Outline: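 HEK293T cells cotransfected with IRF3 and IKKε were treated with compound for 20 h, and lysates were assayed by ELISA for phospho-Ser396 IRF3, normalized to DMSO. Viability was checked in parallel by CellTiter-Glo. For TBK1, cells cotransfected with IRF7 and TBK1 were treated overnight and probed by Western blot for phospho-Ser477/Ser479 IRF7.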

IKKε = molecular target: T1, IKKε (Homo sapiens, UniProt Q14164); test: In-vitro IKKε kinase assay (radiolabelled ATP, filterplate); assay type: biochemical
T1 construct: His-tag (in-house Sf9 preparation) or GST-tag (purchased Invitrogen preparation); these are alternatives, not both on one protein; host or cells: Sf9 cells
T1 sequence (Q14164 1-716): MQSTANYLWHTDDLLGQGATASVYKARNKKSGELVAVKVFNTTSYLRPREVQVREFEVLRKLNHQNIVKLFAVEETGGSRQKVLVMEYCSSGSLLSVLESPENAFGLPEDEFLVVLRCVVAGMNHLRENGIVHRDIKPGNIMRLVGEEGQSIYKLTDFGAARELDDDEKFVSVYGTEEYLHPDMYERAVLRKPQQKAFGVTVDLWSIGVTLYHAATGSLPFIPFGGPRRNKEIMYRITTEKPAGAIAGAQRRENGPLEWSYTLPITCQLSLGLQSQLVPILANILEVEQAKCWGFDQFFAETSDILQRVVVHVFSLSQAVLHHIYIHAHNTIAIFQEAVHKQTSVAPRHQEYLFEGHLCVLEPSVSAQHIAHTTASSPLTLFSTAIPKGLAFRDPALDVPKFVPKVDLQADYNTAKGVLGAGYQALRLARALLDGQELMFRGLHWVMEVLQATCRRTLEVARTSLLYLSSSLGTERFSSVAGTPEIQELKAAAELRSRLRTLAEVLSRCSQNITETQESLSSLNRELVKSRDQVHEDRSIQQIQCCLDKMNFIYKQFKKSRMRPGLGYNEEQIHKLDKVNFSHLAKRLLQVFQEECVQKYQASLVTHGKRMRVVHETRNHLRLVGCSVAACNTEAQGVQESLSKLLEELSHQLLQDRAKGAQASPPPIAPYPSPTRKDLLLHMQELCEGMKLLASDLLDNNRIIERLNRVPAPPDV
Outline: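 His-tagged IKKε from Sf9 cells or GST-tagged IKKε, with myelin basic protein, casein or dephosphorylated casein as substrate and 32 μM ATP (2× Km) plus [γ^33]ATP. "Normal" assay used 0.1 μg/ml enzyme; "sensitized" used 0.015 μg/ml with dephosphorylated casein only. Stopped after 30–45 min with phosphoric acid; P-81 filter counts normalized to DMSO after background subtraction.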

[2] = range given from about 1 μM to about 250 nM
[3] = "sensitized" assay, read-out: IC50, inhibition of the kinase activity of IKKε
[4] = in-vitro IKKε kinase inhibition assays, given as 0.005 μM (5 nM), read-out: IKKε kinase inhibitory activity (IC50 value)

Structure (SMILES)	IC50 [1, 2] [µM]	IC50 (IKKε; [3]) [µM]	IC50 [1] [µM]	IC50 (IKKε; [4]) [µM]
CN(CCS(C)(=O)=O)Cc1ccc(Nc2nccc(-c3ccc(OC4CCOCC4)c(C#N)c3)n2)cn1 [Example Compound 207, 5-(2-{[6-({Methyl[2-(methylsulfonyl)ethyl]amino}methyl)pyridin-3-yl]amino}pyrimidin-4-yl)-2-(tetrahydro-2H-pyran-4-yloxy)benzonitrile]	0.25 to 1	< 0.005	–	–
N#Cc1cc(-c2ccnc(Nc3ccnc(N4CCN(CCO)CC4)c3)n2)ccc1OC1CCOCC1 [Example Compound 42, 5-[2-({2-[4-(2-Hydroxyethyl)piperazin-1-yl]pyridin-4-yl}amino)pyrimidin-4-yl]-2-(tetrahydro-2H-pyran-4-yloxy)benzonitrile]	–	< 0.005	< 0.1	< 0.005
COC1CN(c2cc(Nc3nccc(-c4ccc(OC5CCN(C(=O)CO)CC5)c(C#N)c4)n3)ccn2)C1 [Example Compound 249, 2-{[1-(Hydroxyacetyl)piperidin-4-yl]oxy}-5-(2-{[2-(3-methoxyazetidin-1-yl)pyridin-4-yl]amino}pyrimidin-4-yl)benzonitrile]	–	< 0.005	< 0.1	–
CN(Cc1ccc(Nc2nccc(-c3ccc(OC4CCOCC4)c(C#N)c3)n2)cn1)C(=O)C1(N)CC1 [Example Compound 60, 1-Amino-N-{[5-({4-[3-cyano-4-(tetrahydro-2H-pyran-4-yloxy)phenyl]pyrimidin-2-yl}amino)pyridin-2-yl]methyl}-N-methylcyclopropanecarboxamide]	–	–	0.1 to 0.25	< 0.005
COCCNc1cc(Nc2nccc(-c3ccc(OC4CCN(C(=O)CO)CC4)c(C#N)c3)n2)ccn1 [Example Compound 238, 2-{[1-(Hydroxyacetyl)piperidin-4-yl]oxy}-5-[2-({2-[(2-methoxyethyl)amino]pyridin-4-yl}amino)pyrimidin-4-yl]benzonitrile]	0.25 to 1	< 0.005	–	–
COC1CN(Cc2cc(Nc3nccc(-c4ccc(OC5CCOCC5)c(C#N)c4)n3)ccn2)C1 [Example Compound 219, 5-[2-({2-[(3-Methoxyazetidin-1-yl)methyl]pyridin-4-yl}amino)pyrimidin-4-yl]-2-(tetrahydro-2H-pyran-4-yloxy)benzonitrile]	–	< 0.005	1 to 5	–
CC(c1ncc(Nc2nccc(-c3ccc(OC4CCOCC4)c(C#N)c3)n2)cc1F)N1CCOCC1 (centres unmarked) [Example Compound 251]	–	< 0.005	0.1 to 0.25	–
CC(C)COc1ccc(-c2ccnc(Nc3ccc(N(C)CCO)nc3)n2)cc1C#N [Example Compound 109, 5-[2-({6-[(2-Hydroxyethyl)(methyl)amino]pyridin-3-yl}amino)pyrimidin-4-yl]-2-(2-methylpropoxy)benzonitrile]	–	< 0.005	0.1 to 0.25	< 0.005
CN(Cc1ccc(Nc2nccc(-c3ccc(OC4CCOCC4)c(C#N)c3)n2)cn1)S(C)(=O)=O [Example Compound 206, N-{[5-({4-[3-Cyano-4-(tetrahydro-2H-pyran-4-yloxy)phenyl]pyrimidin-2-yl}amino)pyridin-2-yl]methyl}-N-methylmethanesulfonamide]	–	< 0.005	< 0.1	–
N#Cc1cc(-c2ccnc(Nc3cncc(CN4CCOCC4)c3)n2)ccc1OC1CCOCC1 [Example Compound 185, 5-(2-{[5-(Morpholin-4-ylmethyl)pyridin-3-yl]amino}pyrimidin-4-yl)-2-(tetrahydro-2H-pyran-4-yloxy)benzonitrile]	0.25 to 1	< 0.005	–	–
Cc1ccc(Nc2nccc(-c3ccc(OC4CCOCC4)c(C#N)c3)n2)cn1 [Example Compound 7, 5 5-{2-[(6-Methylpyridin-3-yl)amino]pyrimidin-4-yl}-2-(tetrahydro-2H-pyran-4-yloxy)benzonitrile]	–	< 0.005	0.1 to 0.25	< 0.005
CCOc1ccc(Nc2nccc(-c3ccc(OC4CCOCC4)c(C#N)c3)n2)cn1 [Example Compound 8, 5-{2-[(6-Ethoxypyridin-3-yl)amino]pyrimidin-4-yl}-2-(tetrahydro-2H-pyran-4-yloxy)benzonitrile]	0.25 to 1	< 0.005	–	< 0.005
CCN(CC)c1ccc(Nc2nccc(-c3ccc(O[C@@H]4CCN(C(=O)CO)C4)c(C#N)c3)n2)cn1 [Example Compound 117, 5-(2-{[6-(Diethylamino)pyridin-3-yl]amino}pyrimidin-4-yl)-2-{[(3R)-1-(hydroxyacetyl)pyrrolidin-3-yl]oxy}benzonitrile]	0.25 to 1	< 0.005	–	< 0.005
CNC(=O)c1cncc(Nc2nccc(-c3ccc(OC4CCOCC4)c(C#N)c3)n2)c1 [Example Compound 12, 5-({4-[3-Cyano-4-(tetrahydro-2H-pyran-4-yloxy)phenyl]pyrimidin-2-yl}amino)-N-methylpyridine-3-carboxamide]	–	< 0.005	1 to 5	< 0.005
N#Cc1cc(-c2ccnc(Nc3ccc(-c4cn[nH]c4)nc3)n2)ccc1OC1CCOCC1 [Example Compound 78, 5-(2-{[6-(1H-Pyrazol-4-yl)pyridin-3-yl]amino}pyrimidin-4-yl)-2-(tetrahydro-2H-pyran-4-yloxy)benzonitrile]	–	–	< 0.1	< 0.005
N#Cc1cc(-c2ccnc(Nc3ccnc(CN4CCC(F)(F)C4)c3)n2)ccc1OC1CCOCC1 [Example Compound 71, 5-[2-({2-[(3,3-Difluoropyrrolidin-1-yl)methyl]pyridin-4-yl}amino)pyrimidin-4-yl]-2-(tetrahydro-2H-pyran-4-yloxy)benzonitrile]	–	–	< 0.1	< 0.005
CC(=O)NCc1ccc(Nc2nccc(-c3ccc(OC4CCOCC4)c(C#N)c3)n2)cn1 [Example Compound 228, N-{[5-({4-[3-Cyano-4-(tetrahydro-2H-pyran-4-yloxy)phenyl]pyrimidin-2-yl}amino)pyridin-2-yl]methyl}acetamide]	0.25 to 1	< 0.005	–	–
COC1CN(Cc2cncc(Nc3nccc(-c4ccc(OC5CCOCC5)c(C#N)c4)n3)c2)C1 [Example Compound 23, 5-[2-({5-[(3-Methoxyazetidin-1-yl)methyl]pyridin-3-yl}amino)pyrimidin-4-yl]-2-(tetrahydro-2H-pyran-4-yloxy)benzonitrile]	0.25 to 1	< 0.005	–	< 0.005
CNCc1ccc(Nc2nccc(-c3ccc(OC4CCOCC4)c(C#N)c3)n2)cn1 [Example Compound 52, 5-[2-({6-[(Methylamino)methyl]pyridin-3-yl}amino)pyrimidin-4-yl]-2-(tetrahydro-2H-pyran-4-yloxy)benzonitrile]	0.25 to 1	< 0.005	–	< 0.005
Cn1cc(-c2ccc(Nc3nccc(-c4ccc(OC5CCOCC5)c(C#N)c4)n3)cn2)cn1 [Example Compound 77, 5-(2-{[6-(1-Methyl-1H-pyrazol-4-yl)pyridin-3-yl]amino}pyrimidin-4-yl)-2-(tetrahydro-2H-pyran-4-yloxy)benzonitrile]	–	–	< 0.1	< 0.005
CN(C)C1CCN(c2ccc(Nc3nccc(-c4ccc(OC5CCOCC5)c(C#N)c4)n3)nn2)C1 (centres unmarked) [Example Compound 87, 5-[2-({6-[3-(Dimethylamino)pyrrolidin-1-yl]pyridazin-3-yl}amino)pyrimidin-4-yl]-2-(tetrahydro-2H-pyran-4-yloxy)benzonitrile]	0.25 to 1	< 0.005	–	< 0.005
N#Cc1cc(-c2ccnc(Nc3ccnc(-c4cn[nH]c4)c3)n2)ccc1OC1CCOCC1 [Example Compound 83, 5-(2-{[2-(1H-Pyrazol-4-yl)pyridin-4-yl]amino}pyrimidin-4-yl)-2-(tetrahydro-2H-pyran-4-yloxy)benzonitrile]	–	< 0.005	0.1 to 0.25	< 0.005
N#Cc1cc(-c2ccnc(Nc3ccc(N4CC(O)C4)nc3)n2)ccc1OC1CCOCC1 [Example Compound 215, 5-(2-{[6-(3-Hydroxyazetidin-1-yl)pyridin-3-yl]amino}pyrimidin-4-yl)-2-(tetrahydro-2H-pyran-4-yloxy)benzonitrile]	–	< 0.005	< 0.1	–
